Legend:
Sphaerotheca fuliginea = experiment: in vivo preventive test on Sphaerotheca fuliginea (powdery mildew on cucurbits); conditions: 500 ppm of active ingredient, young gherkin plants sprayed, inoculated after 24 hours, evaluated 8 days after the inoculation; for pest or weed control at 500 ppm: Podosphaera fuliginea, 192 h, read-out: efficacy
Protocol: Example: in vivo preventive test on Sphaerotheca fuliginea (powdery mildew on cucurbits)
(§1) The active ingredients were made soluble and homogenized in a mixture of Dimethyl sulfoxide/Acetone/ /Tween® 80 and then diluted in water to the desired concentration.
The young plants of gherkin were treated by spraying the active ingredient prepared as described above. Control plants were treated only with an aqueous solution of Acetone/Dimethyl sulfoxide/ […].
After 24 hours, the plants were contaminated by spraying the leaves with an aqueous suspension of Sphaerotheca fuliginea spores. The contaminated gherkin plants were incubated for 8 days at 20°C and at 70-80% relative humidity.
The test was evaluated 8 days after the inoculation. 0% means an efficacy which corresponds to that of the control plants while an efficacy of 100% means that no disease was observed.

[1] = LogP measurement by HPLC on reversed phase columns (EEC directive 79/831 Annex V.A8); type: physicochemical
Protocol: If more than one LogP value is available within the same method, all the values are given and separated by "+".
Lambda-max-values were determined using UV-spectra from 200 nm to 400 nm and the peak values of the chromatographic signals.

Puccinia recondita = experiment: in vivo preventive test on Puccinia recondita (brown rust on wheat); conditions: for pest or weed control at 500 ppm: Puccinia recondita, 264 h, 500 ppm of active ingredient, young wheat plants sprayed, inoculated after 24 hours, evaluated 11 days after the inoculation, read-out: efficacy; for efficacy: 500 ppm
Protocol: Example: in vivo preventive test on Puccinia recondita (brown rust on wheat)
as §1
The young plants of wheat were treated by spraying the active ingredient prepared as described above. Control plants were treated only with an aqueous solution of Acetone/Dimethyl sulfoxide/ Tween® 80.
After 24 hours, the plants were contaminated by spraying the leaves with an aqueous suspension of Puccinia recondita spores. The contaminated wheat plants were incubated for 24 hours at 20°C and at 100% relative humidity and then for 10 days at 20°C and at 70-80% relative humidity.
The test was evaluated 11 days after the inoculation. 0% means an efficacy which corresponds to that of the control plants while an efficacy of 100% means that no disease was observed.

Phakospora pachyrhizi = experiment: in vivo preventive test on Phakospora pachyrhizi (soybean rust); conditions: for pest or weed control at 500 ppm: Glycine max, 288 h, 500 ppm of active ingredient, young soybean plants sprayed, inoculated after 24 hours, evaluated 12 days after the inoculation, read-out: efficacy; for efficacy: 500 ppm
Protocol: Example: in vivo preventive test on Phakospora pachyrhizi (soybean rust)
as §1
The young plants of soybean were treated by spraying the active ingredient prepared as described above. Control plants were treated only with an aqueous solution of Acetone/Dimethyl sulfoxide/ […].
After 24 hours, the plants were contaminated by spraying the leaves with an aqueous suspension of Phakosporapachyrhizi spores. The contaminated soybean plants were incubated for 24 hours at 24°C and at 100% relative humidity and then for 11 days at 24°C and at 70-80% relative humidity.
The test was evaluated 12 days after the inoculation. 0% means an efficacy which corresponds to that of the control plants while an efficacy of 100% means that no disease was observed.

[2] = reversed phase HPLC column, method [a]: LC-UV, acidic range, 0.1% formic acid in water and acetonitrile as eluent
[3] = reversed phase HPLC column, method [b]: LC-UV, neutral range, 0.001 molar ammonium acetate solution in water and acetonitrile as eluent
[4] = method [a]: LC-UV, acidic range, 0.1% formic acid in water and acetonitrile as eluent
[5] = method [b]: LC-UV, neutral range, 0.001 molar ammonium acetate solution in water and acetonitrile as eluent

Compound | pest or weed control at 500 ppm (Sphaerotheca fuliginea) | chromatographic logP [1, 2] | chromatographic logP [1, 3] | pest or weed control at 500 ppm (Puccinia recondita) | pest or weed control at 500 ppm (Phakospora pachyrhizi) | efficacy (Sphaerotheca fuliginea) | chromatographic logP [1, 4] | chromatographic logP [1, 5] | efficacy (Puccinia recondita) | efficacy (Phakospora pachyrhizi)
CCN(C)C=Nc1cc(C)c(Oc2ccnc(/C=C/C(C)(C)C)n2)cc1C [I.034, N'-[4-[2-[(E)-3,3-dimethylbut-1-enyl]pyrimidin-4-yl]oxy-2,5-dimethylphenyl]-N-ethyl-N-methylmethanimidamide] | ≥ 70% | 1.66 | 4.94 | ≥ 70% | ≥ 70% |  |  |  |  | 
CCCSc1nccc(Oc2cc(C)c(N=CN(C)CC)cc2C(F)F)n1 [I.036, N'-[5-(difluoromethyl)-2-methyl-4-(2-propylsulfanylpyrimidin-4-yl)oxyphenyl]-N-ethyl-N-methylmethanimidamide] | ≥ 70% | 1.55 |  | ≥ 70% | ≥ 70% |  |  |  |  | 
CCN(C)C=Nc1cc(Br)c(Oc2ccnc(Sc3ccccc3)n2)cc1C [I.037, N'-[5-bromo-2-methyl-4-(2-phenylsulfanylpyrimidin-4-yl)oxyphenyl]-N-ethyl-N-methylmethan-imidamide] | ≥ 70% | 1.69 | 4.8 | ≥ 70% | ≥ 70% |  |  |  |  | 
CCN(C)C=Nc1cc(C)c(Oc2ccnc(Sc3ccccc3)n2)cc1C [I.039, N'-[2,5-dimethyl-4-(2-phenylsulfanylpyrimidin-4-yl)oxyphenyl]-N-ethyl-N-methylmethanimid-amide] |  |  |  |  |  | at least 70% | 1.52 | 4.55 | at least 70% | at least 70%
CCN(C)C=Nc1cc(C)c(Oc2ccnc(SCC3CC3)n2)cc1C [I.040, N'-[4-[2-(cyclopropylmethylsulfanyl)pyrimidin-4-yl]oxy-2,5-dimethylphenyl]-N-ethyl-N-methylmethanimidamide] | ≥ 70% | 1.55 |  | ≥ 70% | ≥ 70% |  |  |  |  | 
CCN(C)C=Nc1cc(C)c(Oc2ccnc(OC3CCCC3)n2)cc1C [I.041, N'-[4-(2-cyclopentyloxypyrimidin-4-yl)oxy-2,5-dimethylphenyl]-N-ethyl-N-methylmethanimid-amide] |  |  |  |  |  | at least 70% | 1.6 | 4.67 | at least 70% | at least 70%
CCN(C)C=Nc1cc(C)c(Oc2ccnc(SCc3ccccc3)n2)cc1C [I.042, N'-[4-(2-benzylsulfanylpyrimidin-4-yl)oxy-2,5-dimethylphenyl]-N-ethyl-N-methylmethanimid-amide] |  |  |  |  |  | at least 70% | 1.63 | 4.82 | at least 70% | at least 70%
CCN(C)C=Nc1cc(C)c(Oc2ccnc(SCC[Si](C)(C)C)n2)cc1C [I.043, N'-[2,5-dimethyl-4-[2-(2-trimethylsilylethylsulfanyl)pyrimidin-4-yl]oxyphenyl]-N-ethyl-N-methylmethanimidamide] | ≥ 70% |  |  | ≥ 70% | ≥ 70% |  | 2.17 |  |  | 
CCN(C)C=Nc1cc(C#N)c(Oc2ccnc(C(C)(C)C)n2)cc1C [I.044, N'-[4-(2-tert-butylpyrimidin-4-yl)oxy-5-cyano-2-methylphenyl]-N-ethyl-N-methylmethanimid-amide] |  |  |  |  |  | at least 70% | 1.41 | 4.29 | at least 70% | at least 70%
CCN(C)C=Nc1cc(C)c(Oc2ccnc(SC(C)(C)C)n2)cc1Cl [I.045, N'-[4-(2-tert-butylsulfanylpyrimidin-4-yl)oxy-2-chloro-5-methylphenyl]-N-ethyl-N-methyl-methanimidamide] | ≥ 70% | 1.63 | 4.5 | ≥ 70% | ≥ 70% |  |  |  |  | 

— EP3708565A1, “PYRIMIDINYLOXYPHENYLAMIDINES AND THE USE THEREOF AS FUNGICIDES” (Bayer AG, priority 2020, dated 2020)
